Test results taken from the NIST ThermoML archive (doi:10.1016/j.tca.2008.10.019).
Numbers after ± are expanded uncertainties.

Legend:
[1] = Crystal; DTA
[2] = Molar enthalpy of transition or fusion; details: Crystal; DSC

Normal melting temperature [1]: 170.00 ± 0.5 °C
Molar enthalpy of transition or fusion [2]: 23.2 ± 0.72 kJ/mol
SMILES: NC(=O)CC(N)=O [1,3-propanedioic acid, diamide]
